Reference: ChEMBL document CHEMBL3400015, “Tertiary amides of Salinomycin: A new group of antibacterial agents against Bacillus anthracis and methicillin-resistant Staphylococcus epidermidis” (Bioorg Med Chem Lett, 2015)
Values after ≈ are worked out from the molar mass of the structure shown.

Legend:
[1] = test system: Staphylococcus aureus; assay: Antimicrobial activity against Staphylococcus aureus NCTC 4163 after 18 hrs by twofold serial broth dilution method; type: functional; conditions: NCTC 4163, 18 h
[2] = test system: Staphylococcus epidermidis; assay: Bactericidal activity against methicillin-resistant Staphylococcus epidermidis isolate 454/11 after 24 hrs; type: functional; conditions: isolate 454/11, 24 h, read-out: MBC99.9
[3] = test system: Staphylococcus epidermidis; assay: Bactericidal activity against methicillin-resistant Staphylococcus epidermidis isolate 404/10 after 24 hrs; type: functional; conditions: isolate 404/10, 24 h, read-out: MBC99.9
[4] = test system: Staphylococcus epidermidis; assay: Bactericidal activity against methicillin-resistant Staphylococcus epidermidis isolate 461/11 after 24 hrs; type: functional; conditions: isolate 461/11, 24 h, read-out: MBC99.9
[5] = test system: Pseudomonas aeruginosa; assay: Antimicrobial activity against Pseudomonas aeruginosa ATCC 15442 after 18 hrs by twofold serial broth dilution method; type: functional; conditions: ATCC 15442, 18 h
[6] = test system: Staphylococcus epidermidis; assay: Bactericidal activity against methicillin-resistant Staphylococcus epidermidis isolate 422/10 after 24 hrs; type: functional; conditions: isolate 422/10, 24 h, read-out: MBC99.9
[7] = test system: Pseudomonas aeruginosa; assay: Antimicrobial activity against Pseudomonas aeruginosa ATCC 27853 after 18 hrs by twofold serial broth dilution method; type: functional; conditions: ATCC 27853, 18 h
[8] = test system: Escherichia coli; assay: Bactericidal activity against Escherichia coli ATCC 10538 after 24 hrs; type: functional; conditions: ATCC 10538, 24 h, read-out: MBC99.9
[9] = test system: Staphylococcus epidermidis; assay: Antimicrobial activity against methicillin-resistant Staphylococcus epidermidis isolate 469/11 after 18 hrs by twofold serial broth dilution method; type: functional; conditions: isolate 469/11, 18 h
[10] = test system: Escherichia coli; assay: Antimicrobial activity against Escherichia coli ATCC 25922 after 18 hrs by twofold serial broth dilution method; type: functional; conditions: ATCC 25922, 18 h
[11] = test system: Staphylococcus epidermidis; assay: Antimicrobial activity against methicillin-resistant Staphylococcus epidermidis isolate 454/11 after 18 hrs by twofold serial broth dilution method; type: functional; conditions: isolate 454/11, 18 h
[12] = test system: Staphylococcus epidermidis; assay: Antimicrobial activity against methicillin-resistant Staphylococcus epidermidis isolate 422/10 after 18 hrs by twofold serial broth dilution method; type: functional; conditions: isolate 422/10, 18 h
[13] = test system: Escherichia coli; assay: Bactericidal activity against Escherichia coli ATCC 25922 after 24 hrs; type: functional; conditions: ATCC 25922, 24 h, read-out: MBC99.9
[14] = test system: Staphylococcus aureus; assay: Bactericidal activity against Staphylococcus aureus […] after 24 hrs; type: functional; conditions: read-out: MBC99.9
[15] = test system: Staphylococcus epidermidis; assay: Antimicrobial activity against methicillin-resistant Staphylococcus epidermidis isolate 470/11 after 18 hrs by twofold serial broth dilution method; type: functional; conditions: isolate 470/11, 18 h
[16] = test system: Staphylococcus epidermidis; assay: Bactericidal activity against methicillin-resistant Staphylococcus epidermidis isolate 460/11 after 24 hrs; type: functional; conditions: isolate 460/11, 24 h, read-out: MBC99.9
[17] = test system: Staphylococcus epidermidis; assay: Antimicrobial activity against Staphylococcus epidermidis ATCC 35984 after 18 hrs by twofold serial broth dilution method; type: functional; conditions: ATCC 35984, 18 h
[18] = test system: Staphylococcus epidermidis; assay: Antimicrobial activity against Staphylococcus epidermidis ATCC 12228 after 18 hrs by twofold serial broth dilution method; type: functional; conditions: ATCC 12228, 18 h
[19] = test system: Staphylococcus epidermidis; assay: Bactericidal activity against methicillin-resistant Staphylococcus epidermidis isolate 469/11 after 24 hrs; type: functional; conditions: isolate 469/11, 24 h, read-out: MBC99.9
[20] = test system: Bacillus subtilis; assay: Genotoxicity in rec-negative Bacillus subtilis M45 at 2 ug/9 mm disc after 24 hrs by disc diffusion method; type: toxicity, organism-based
[21] = test system: Staphylococcus epidermidis; assay: Antimicrobial activity against methicillin-resistant Staphylococcus epidermidis isolate 457/11 after 18 hrs by twofold serial broth dilution method; type: functional; conditions: isolate 457/11, 18 h
[22] = test system: Staphylococcus epidermidis; assay: Antimicrobial activity against methicillin-resistant Staphylococcus epidermidis isolate 409/10 after 18 hrs by twofold serial broth dilution method; type: functional; conditions: isolate 409/10, 18 h
[23] = test system: Bacillus subtilis; assay: Genotoxicity in rec-positive Bacillus subtilis H17 at 2 ug/9 mm disc after 24 hrs by disc diffusion method; type: toxicity, organism-based
[24] = test system: Bacillus anthracis; assay: Antimicrobial activity against Bacillus anthracis 34F2 after 18 hrs by twofold serial broth dilution method; type: functional; conditions: 34F2, 18 h
[25] = test system: Staphylococcus epidermidis; assay: Antimicrobial activity against methicillin-resistant Staphylococcus epidermidis isolate 455/11 after 18 hrs by twofold serial broth dilution method; type: functional; conditions: isolate 455/11, 18 h
[26] = test system: Staphylococcus epidermidis; assay: Bactericidal activity against methicillin-resistant Staphylococcus epidermidis isolate 457/11 after 24 hrs; type: functional; conditions: isolate 457/11, 24 h, read-out: MBC99.9
[27] = test system: Staphylococcus aureus; assay: Bactericidal activity against Staphylococcus aureus ATCC 25923 after 24 hrs; type: functional; conditions: ATCC 25923, 24 h, read-out: MBC99.9
[28] = test system: Staphylococcus aureus; assay: Antimicrobial activity against Staphylococcus aureus ATCC 25923 after 18 hrs by twofold serial broth dilution method; type: functional; conditions: ATCC 25923, 18 h
[29] = test system: Pseudomonas aeruginosa; assay: Bactericidal activity against Pseudomonas aeruginosa ATCC 27853 after 24 hrs; type: functional; conditions: ATCC 27853, 24 h, read-out: MBC99.9
[30] = test system: Staphylococcus epidermidis; assay: Bactericidal activity against Staphylococcus epidermidis ATCC 35984 after 24 hrs; type: functional; conditions: ATCC 35984, 24 h, read-out: MBC99.9
[31] = test system: Staphylococcus epidermidis; assay: Bactericidal activity against methicillin-resistant Staphylococcus epidermidis isolate 403/10 after 24 hrs; type: functional; conditions: isolate 403/10, 24 h, read-out: MBC99.9
[32] = test system: Staphylococcus epidermidis; assay: Antimicrobial activity against methicillin-resistant Staphylococcus epidermidis isolate 458/11 after 18 hrs by twofold serial broth dilution method; type: functional; conditions: isolate 458/11, 18 h
[33] = test system: Staphylococcus aureus; assay: Antimicrobial activity against Staphylococcus aureus ATCC 6538 after 18 hrs by twofold serial broth dilution method; type: functional; conditions: ATCC 6538, 18 h
[34] = test system: Staphylococcus epidermidis; assay: Antimicrobial activity against methicillin-resistant Staphylococcus epidermidis isolate 407/10 after 18 hrs by twofold serial broth dilution method; type: functional; conditions: isolate 407/10, 18 h
[35] = test system: Staphylococcus aureus; assay: Bactericidal activity against Staphylococcus aureus NCTC 4163 after 24 hrs; type: functional; conditions: NCTC 4163, 24 h, read-out: MBC99.9
[36] = test system: Staphylococcus epidermidis; assay: Antimicrobial activity against methicillin-resistant Staphylococcus epidermidis isolate 404/10 after 18 hrs by twofold serial broth dilution method; type: functional; conditions: isolate 404/10, 18 h
[37] = test system: Pseudomonas aeruginosa; assay: Antimicrobial activity against Pseudomonas aeruginosa NCTC 6749 after 18 hrs by twofold serial broth dilution method; type: functional; conditions: NCTC 6749, 18 h
[38] = test system: Escherichia coli; assay: Antimicrobial activity against Escherichia coli NCTC 8196 after 18 hrs by twofold serial broth dilution method; type: functional; conditions: NCTC 8196, 18 h
[39] = test system: Staphylococcus epidermidis; assay: Bactericidal activity against methicillin-resistant Staphylococcus epidermidis isolate 470/11 after 24 hrs; type: functional; conditions: isolate 470/11, 24 h, read-out: MBC99.9
[40] = test system: Staphylococcus epidermidis; assay: Bactericidal activity against methicillin-resistant Staphylococcus epidermidis isolate 458/11 after 24 hrs; type: functional; conditions: isolate 458/11, 24 h, read-out: MBC99.9
[41] = test system: Staphylococcus aureus; assay: Antimicrobial activity against Staphylococcus aureus […] after 18 hrs by twofold serial broth dilution method; type: functional
[42] = test system: Escherichia coli; assay: Bactericidal activity against Escherichia coli NCTC 8196 after 24 hrs; type: functional; conditions: NCTC 8196, 24 h, read-out: MBC99.9
[43] = test system: Pseudomonas aeruginosa; assay: Bactericidal activity against Pseudomonas aeruginosa ATCC 15442 after 24 hrs; type: functional; conditions: ATCC 15442, 24 h, read-out: MBC99.9
[44] = test system: Staphylococcus epidermidis; assay: Antimicrobial activity against methicillin-resistant Staphylococcus epidermidis isolate 424/10 after 18 hrs by twofold serial broth dilution method; type: functional; conditions: isolate 424/10, 18 h

SMILES: CC[C@@H](C(=O)[C@@H](C)[C@@H](O)[C@H](C)[C@@H]1O[C@@H]([C@@H](CC)C(=O)N2CCNCC2)CC[C@@H]1C)[C@H]1O[C@]2(C=C[C@@H](O)[C@]3(CC[C@@](C)([C@H]4CC[C@](O)(CC)[C@H](C)O4)O3)O2)[C@H](C)C[C@@H]1C
- MIC [1]: 128 µg/mL (≈ 156 µM)
- MBC [2]: > 256 µg/mL
- MBC [3]: 256 µg/mL (≈ 313 µM)
- MBC [4]: > 256 µg/mL
- MIC [5]: > 256 µg/mL
- MBC [6]: > 256 µg/mL
- MIC [7]: > 256 µg/mL
- MBC [8]: > 256 µg/mL
- MIC [9]: 128 µg/mL (≈ 156 µM)
- MIC [10]: > 256 µg/mL
- MIC [11]: 128 µg/mL (≈ 156 µM)
- MIC [12]: 128 µg/mL (≈ 156 µM)
- MBC [13]: > 256 µg/mL
- MBC [14]: > 256 µg/mL
- MIC [15]: 256 µg/mL (≈ 313 µM)
- MBC [16]: > 256 µg/mL
- MIC [17]: 128 µg/mL (≈ 156 µM)
- MIC [18]: 128 µg/mL (≈ 156 µM)
- MBC [19]: > 256 µg/mL
- diameter of the inhibition zone (DIZ) [20]: 14 mm
- MIC [21]: 256 µg/mL (≈ 313 µM)
- MIC [22]: 128 µg/mL (≈ 156 µM)
- diameter of the inhibition zone (DIZ) [23]: 14 mm
- MIC [24]: 64 µg/mL (≈ 78.1 µM)
- MIC [25]: 256 µg/mL (≈ 313 µM)
- MBC [26]: > 256 µg/mL
- MBC [27]: > 256 µg/mL
- MIC [28]: 128 µg/mL (≈ 156 µM)
- MBC [29]: > 256 µg/mL
- MBC [30]: > 256 µg/mL
- MBC [31]: > 256 µg/mL
- MIC [32]: 128 µg/mL (≈ 156 µM)
- MIC [33]: 64 µg/mL (≈ 78.1 µM)
- MIC [34]: 128 µg/mL (≈ 156 µM)
- MBC [35]: > 256 µg/mL
- MIC [36]: 64 µg/mL (≈ 78.1 µM)
- MIC [37]: > 256 µg/mL
- MIC [38]: > 256 µg/mL
- MBC [39]: > 256 µg/mL
- MBC [40]: > 256 µg/mL
- MIC [41]: 128 µg/mL (≈ 156 µM)
- MBC [42]: > 256 µg/mL
- MBC [43]: > 256 µg/mL
- MIC [44]: 64 µg/mL (≈ 78.1 µM)

SMILES: CC[C@@H](C(=O)[C@@H](C)[C@@H](O)[C@H](C)[C@@H]1O[C@@H]([C@@H](CC)C(=O)N(CC)CC)CC[C@@H]1C)[C@H]1O[C@]2(C=C[C@@H](O)[C@]3(CC[C@@](C)([C@H]4CC[C@](O)(CC)[C@H](C)O4)O3)O2)[C@H](C)C[C@@H]1C
- MIC [1]: 4 µg/mL (≈ 4.96 µM)
- MBC [2]: 128 µg/mL (≈ 159 µM)
- MBC [3]: 256 µg/mL (≈ 318 µM)
- MBC [4]: 128 µg/mL (≈ 159 µM)
- MIC [5]: > 256 µg/mL
- MBC [6]: 256 µg/mL (≈ 318 µM)
- MIC [7]: > 256 µg/mL
- MBC [8]: > 256 µg/mL
- MIC [9]: 8 µg/mL (≈ 9.92 µM)
- MIC [10]: > 256 µg/mL
- MIC [11]: 4 µg/mL (≈ 4.96 µM)
- MIC [12]: 8 µg/mL (≈ 9.92 µM)
- MBC [13]: > 256 µg/mL
- MBC [14]: 64 µg/mL (≈ 79.4 µM)
- MIC [15]: 4 µg/mL (≈ 4.96 µM)
- MBC [16]: 256 µg/mL (≈ 318 µM)
- MIC [17]: 4 µg/mL (≈ 4.96 µM)
- MIC [18]: 2 µg/mL (≈ 2.48 µM)
- MBC [19]: 256 µg/mL (≈ 318 µM)
- diameter of the inhibition zone (DIZ) [20]: 26 mm
- MIC [21]: 4 µg/mL (≈ 4.96 µM)
- MIC [22]: 4 µg/mL (≈ 4.96 µM)
- diameter of the inhibition zone (DIZ) [23]: 26 mm
- MIC [24]: 1 µg/mL (≈ 1.24 µM)
- MIC [25]: 8 µg/mL (≈ 9.92 µM)
- MBC [26]: 128 µg/mL (≈ 159 µM)
- MBC [27]: 64 µg/mL (≈ 79.4 µM)
- MIC [28]: 2 µg/mL (≈ 2.48 µM)
- MBC [29]: > 256 µg/mL
- MBC [30]: 128 µg/mL (≈ 159 µM)
- MBC [31]: 256 µg/mL (≈ 318 µM)
- MIC [32]: 4 µg/mL (≈ 4.96 µM)
- MIC [33]: 2 µg/mL (≈ 2.48 µM)
- MIC [34]: 4 µg/mL (≈ 4.96 µM)
- MBC [35]: 64 µg/mL (≈ 79.4 µM)
- MIC [36]: 4 µg/mL (≈ 4.96 µM)
- MIC [37]: > 256 µg/mL
- MIC [38]: > 256 µg/mL
- MBC [39]: 128 µg/mL (≈ 159 µM)
- MBC [40]: 128 µg/mL (≈ 159 µM)
- MIC [41]: 4 µg/mL (≈ 4.96 µM)
- MBC [42]: > 256 µg/mL
- MBC [43]: > 256 µg/mL
- MIC [44]: 8 µg/mL (≈ 9.92 µM)
